Source: PubChem BioAssay AID248 (DTP/NCI, 2004)
Values joined by “and” are separate entries in the source; they are usually repeats but may differ in a detail not shown here. Equal values may be shown once. Inconclusive results and toxic doses are left out. Rule as the data show it: active = T/C of 150% or more; inactive = T/C below 125%.

System: L1210 leukemia ip in BDF1 mice, survival T/C
Assay: NCI In Vivo Anticancer Drug Screen. Data for tumor model L1210 Leukemia (intraperitoneal) in B6D2F1 (BDF1) mice
Conditions: endpoint: mean survival time, higher = longer survival
Summary of the method: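 Mice bearing the transplanted tumor received compound or vehicle. Survival of the treated group was divided by that of the vehicle-treated control group to give the ratio.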

[1] = dose: 75.0 mg/kg/injection, schedule: Q01DX009 (ip), vehicle: Klucel (hydroxypropylcellulose) (HPC)
[2] = dose: 150.0 mg/kg/injection, schedule: Q01DX009 (ip), vehicle: Klucel (hydroxypropylcellulose) (HPC)
[3] = dose: 300.0 mg/kg/injection, schedule: Q01DX009 (ip), vehicle: Klucel (hydroxypropylcellulose) (HPC)
[4] = dose: 100.0 mg/kg/injection, schedule: Q01DX009 (ip), vehicle: saline
[5] = dose: 100.0 mg/kg/injection, schedule: Q04DX003 (ip), vehicle: saline
[6] = dose: 200.0 mg/kg/injection, schedule: Q04DX003 (ip), vehicle: saline
[7] = dose: 100.0 mg/kg/injection, schedule: Q01DX001 (ip), vehicle: saline
[8] = dose: 400.0 mg/kg/injection, schedule: Q01DX001 (ip), vehicle: saline
[9] = dose: 100.0 mg/kg/injection, schedule: Q01DX009 (ip), vehicle: Klucel (hydroxypropylcellulose) (HPC)
[10] = dose: 200.0 mg/kg/injection, schedule: Q01DX009 (ip), vehicle: Klucel (hydroxypropylcellulose) (HPC)
[11] = dose: 400.0 mg/kg/injection, schedule: Q01DX009 (ip), vehicle: Klucel (hydroxypropylcellulose) (HPC)
[12] = dose: 200.0 mg/kg/injection, schedule: Q01DX009 (ip), vehicle: saline
[13] = dose: 400.0 mg/kg/injection, schedule: Q04DX003 (ip), vehicle: saline
[14] = dose: 200.0 mg/kg/injection, schedule: Q01DX001 (ip), vehicle: saline
[15] = dose: 12.5 mg/kg/injection, schedule: Q04DX003 (ip), vehicle: saline
[16] = dose: 25.0 mg/kg/injection, schedule: Q04DX003 (ip), vehicle: saline

Measured: T/C

CC(CC(=O)c1cc(Cl)ccc1O)CC(C)(C)C (stereo not drawn)
inactive: [1] 114 % of control | dose: 100.0 mg/kg/injection, schedule: Q04DX002 (ip), vehicle: Klucel (hydroxypropylcellulose) (HPC) 97 % of control | [2] 97 % of control | dose: 200.0 mg/kg/injection, schedule: Q04DX002 (ip), vehicle: Klucel (hydroxypropylcellulose) (HPC) 93 % of control | [3] 100 % of control | dose: 400.0 mg/kg/injection, schedule: Q04DX002 (ip), vehicle: Klucel (hydroxypropylcellulose) (HPC) 104 % of control

N#[N+]c1c(O)cc(S(=O)(=O)O)c2ccccc12
inactive: [4] 92 % of control | [5] 94 % of control | [6] 101 % of control

CSc1cccc(C(=O)O)c1
inactive: dose: 100.0 mg/kg/injection, schedule: Q01DX001 (ip), vehicle: Klucel (hydroxypropylcellulose) (HPC) 102 % of control | dose: 200.0 mg/kg/injection, schedule: Q01DX001 (ip), vehicle: Klucel (hydroxypropylcellulose) (HPC) 102 % of control | dose: 400.0 mg/kg/injection, schedule: Q01DX001 (ip), vehicle: Klucel (hydroxypropylcellulose) (HPC) 94 % of control

CCCC(NC(=O)CCl)C(=O)O (stereo not drawn)
inactive: [5] 96 % of control | [6] 101 % of control

NCCSc1ccc(Br)cc1
inactive: dose: 75.0 mg/kg/injection, schedule: Q01DX001 (ip), vehicle: other 100 % of control | dose: 150.0 mg/kg/injection, schedule: Q01DX001 (ip), vehicle: other 102 % of control

CCOC(=O)c1cc2c(-c3ccccc3)c(-c3ccccc3)c(-c3ccccc3)c(-c3ccccc3)n2n1
inactive: [7] 93 % of control | [8] 93 % of control

COc1ccc(S(=O)(=O)Nc2cc([N+](=O)[O-])ccc2OC)cc1
inactive: [9] 103 % of control | [10] 97 % of control | [11] 95 % of control

CCC[As](=O)(O)C(C)C
inactive: [5] 97 % of control

CC12CC3CC(Br)(C1)CC(C(=O)O)(C3)C2 (stereo not drawn)
inactive: dose: 50.0 mg/kg/injection, schedule: Q01DX009 (ip), vehicle: saline 103 % of control | [4] 96 % of control | [5] 103 % of control | [12] 91 % of control | [6] 101 % of control | [13] 110 % of control

CC[C@H]1CN2CCc3cc(OC)c(OC)cc3[C@@H]2C[C@@H]1C[C@@H]1c2cc(OC)c(OC)cc2CCN1N=O
inactive: [5] 100 % of control

Cc1cc(CC(C)C)c(C(N)=O)cc1C
inactive: dose: 100.0 mg/kg/injection, schedule: Q01DX001 (ip), vehicle: other 108 % of control | dose: 200.0 mg/kg/injection, schedule: Q01DX001 (ip), vehicle: other 105 % of control | dose: 400.0 mg/kg/injection, schedule: Q01DX001 (ip), vehicle: other 103 % of control

CCOC(OCC)C(C)(C)OC=O
inactive: [7] 103 % of control | [14] 103 % of control | [8] 103 % of control

O=C(O)CC(C[N+](=O)[O-])C(F)(F)C(F)(F)C(F)(F)F (stereo not drawn)
inactive: [7] 97 % of control | [14] 112 % of control | [8] 101 % of control

C[N+](C)(C)c1ccc([N+](=O)[O-])cn1
inactive: [5] 101 % of control

CCC1=C(CC2NCCc3cc(OC)c(OC)cc32)CC2c3ccccc3CCN2C1 (stereo not drawn)
inactive: dose: 4.0 mg/kg/injection, schedule: Q04DX003 (ip), vehicle: water 105 % of control and 106 % of control | dose: 8.0 mg/kg/injection, schedule: Q04DX003 (ip), vehicle: water 104 % of control and 108 % of control | dose: 16.0 mg/kg/injection, schedule: Q04DX003 (ip), vehicle: water 112 % of control and 100 % of control | dose: 32.0 mg/kg/injection, schedule: Q04DX003 (ip), vehicle: water 105 % of control and 98 % of control | dose: 64.0 mg/kg/injection, schedule: Q04DX003 (ip), vehicle: water 100 % of control | dose: 75.0 mg/kg/injection, schedule: Q01DX001 (ip), vehicle: saline 100 % of control and 97 % of control | dose: 150.0 mg/kg/injection, schedule: Q01DX001 (ip), vehicle: saline 101 % of control and 103 % of control

NC(=O)N1CC(c2ccccc2)CCc2ccccc21 (stereo not drawn)
inactive: [7] 98 % of control | [14] 108 % of control | [8] 102 % of control

NC1NC(=O)C(CCCOc2ccc([N+](=O)[O-])cc2)C(c2ccccc2)N1 (stereo not drawn)
inactive: [9] 91 % of control | [10] 110 % of control | [11] 89 % of control

Cn1c(N)c(N=Nc2ccc(S(N)(=O)=O)cc2)c(=O)n(C)c1=O
inactive: [7] 94 % of control | [14] 102 % of control | [8] 96 % of control

CC1COCC(C)N1C(=O)c1cccnc1 (stereo not drawn)
inactive: [7] 99 % of control | [4] 101 % of control and 103 % of control | dose: 100.0 mg/kg/injection, schedule: Q04DX002 (ip), vehicle: saline 96 % of control and 100 % of control | [5] 100 % of control | [14] 99 % of control | [12] 113 % of control and 114 % of control | dose: 200.0 mg/kg/injection, schedule: Q04DX002 (ip), vehicle: saline 107 % of control and 110 % of control | [6] 105 % of control | [8] 101 % of control | dose: 400.0 mg/kg/injection, schedule: Q01DX009 (ip), vehicle: saline 103 % of control | dose: 400.0 mg/kg/injection, schedule: Q04DX002 (ip), vehicle: saline 105 % of control and 110 % of control | [13] 105 % of control

O=C1C=C(c2ccccc2)C(Cl)(c2ccccc2)C1 (stereo not drawn)
inactive: dose: 100.0 mg/kg/injection, schedule: Q01DX001 (ip), vehicle: saline with Tween-80 104 % of control | dose: 200.0 mg/kg/injection, schedule: Q01DX001 (ip), vehicle: saline with Tween-80 96 % of control | dose: 400.0 mg/kg/injection, schedule: Q01DX001 (ip), vehicle: saline with Tween-80 89 % of control

Cc1ccc(S(N)(=O)=O)cc1
inactive: dose: 100.0 mg/kg/injection, schedule: Q04DX003 (ip), vehicle: saline with Tween-80 98 % of control | dose: 200.0 mg/kg/injection, schedule: Q04DX003 (ip), vehicle: saline with Tween-80 98 % of control | dose: 400.0 mg/kg/injection, schedule: Q04DX003 (ip), vehicle: saline with Tween-80 96 % of control

CCC1C(=O)C=C(C)OC1=O (stereo not drawn)
inactive: [1] 107 % of control | [2] 101 % of control | [3] 86 % of control

CCCCCc1ccc(/C(C)=N/NC(=O)c2ccc[n+](C)c2)cc1
inactive: dose: 6.25 mg/kg/injection, schedule: Q04DX003 (ip), vehicle: saline 101 % of control | [15] 95 % of control | dose: 25.0 mg/kg/injection, schedule: Q04DX003 (ip), vehicle: saline with Tween-80 98 % of control | [16] 95 % of control

CCCCC(CC)CCC(=O)CC(C)C (stereo not drawn)
inactive: [9] 91 % of control | dose: 100.0 mg/kg/injection, schedule: Q04DX003 (ip), vehicle: Klucel (hydroxypropylcellulose) (HPC) 108 % of control | [10] 102 % of control | dose: 200.0 mg/kg/injection, schedule: Q04DX003 (ip), vehicle: Klucel (hydroxypropylcellulose) (HPC) 98 % of control | dose: 400.0 mg/kg/injection, schedule: Q04DX003 (ip), vehicle: Klucel (hydroxypropylcellulose) (HPC) 98 % of control

NC(N)=N/N=C(\C=C\C=C(c1ccc(Cl)cc1)c1ccc(Cl)cc1)c1ccc(Cl)cc1
inactive: [15] 95 % of control | [16] 95 % of control | dose: 50.0 mg/kg/injection, schedule: Q04DX003 (ip), vehicle: saline 91 % of control
